# From article PMC9489553, “Biochemical and clinical studies of putative allergens to assess what distinguishes them from other non-allergenic proteins in the same family” (Transgenic Research, 2022)
# Biological target: T1, ChMDH (Cladosporium herbarum, UniProt P0C0Y5)
# T1 construct: full length, codon-optimised synthetic gene, pET-28a, E. coli BL21(DE3), N-terminal His-tag cleaved, tetramer
# Experiment: X-ray crystal structure, […] Å
# Assay type: binding
# Conditions: co-crystallised with 5 mM NADP+, pH 7.0, 4 °C; active site
# T1 sequence (P0C0Y5 whole entry): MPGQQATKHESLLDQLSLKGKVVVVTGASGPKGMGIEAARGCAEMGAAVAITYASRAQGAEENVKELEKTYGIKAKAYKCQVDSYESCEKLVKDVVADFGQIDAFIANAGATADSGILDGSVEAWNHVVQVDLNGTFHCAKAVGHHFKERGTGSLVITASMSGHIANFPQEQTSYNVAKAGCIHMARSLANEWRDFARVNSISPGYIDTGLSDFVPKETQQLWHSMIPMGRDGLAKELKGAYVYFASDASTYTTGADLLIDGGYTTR
compound,measurement,value
NC(=O)c1ccc[n+]([C@@H]2O[C@H](COP(=O)(O)OP(=O)(O)OC[C@H]3O[C@@H](n4cnc5c(N)ncnc54)[C@H](OP(=O)(O)O)[C@@H]3O)[C@@H](O)[C@H]2O)c1 [NADP^+],"X-ray crystal structure, 2.04 Å",ChMDH (the third orphan allergen selected for study) in complex with NADP^+ was determined
